The text below walks through data of the supplement of paper PMC11368000.

Some results are limits rather than exact numbers.

The subject of the first assay is 1434 (donor line of iPSC-derived cardiomyocytes). Nature of the assay: POD (EC05) for increase in Ca2+ transient decay-to-rise ratio (QT prolongation) vs vehicle; higher = less potent (higher point of departure). The conditions noted are these: exposure time: 90 min. The protocol:
(§1)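 Human iPSC-derived cardiomyocytes from 16 donors were exposed for 90 min at 37 °C to each PFAS at 0.1, 1, 10 and 100 µM in 0.5% DMSO, 384-well plates. Kinetic Ca2+ flux (FLIPR) and Hoechst nuclei counts were normalised to vehicle wells and fitted with a hierarchical Bayesian Hill model to give donor-specific PODs: EC05 for beat-rate increase or decrease and for decay-to-rise ratio increase (QT proxy), EC95 for peak-frequency loss (asystole), EC10 for total cell number loss. 0.03 µM is the lower bound.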
Turning to `NC(=O)C(F)(F)C(F)(F)C(F)(F)C(F)(F)C(F)(F)C(F)(F)C(F)(F)F` [Perfluorooctanamide], the POD vs vehicle is > 100 µM.

Take `N=C(N)C(F)(F)C(F)(F)C(F)(F)C(F)(F)C(F)(F)C(F)(F)C(F)(F)F` [Perfluorooctanamidine]: the POD vs vehicle was > 100 µM.

With `O=S(=O)(O)C(F)(F)C(F)(F)C(F)(F)C(F)(F)C(F)(F)C(F)(F)C(F)(F)C(F)(F)F` [Perfluorooctanesulfonic_acid], the POD vs vehicle was > 100 µM.

With `O=C(O)C(F)(F)C(F)(F)C(F)(F)C(F)(F)C(F)(F)C(F)(F)C(F)(F)F` [Perfluorooctanoic_acid], the POD vs vehicle is > 100 µM.

Take `O=C(O)C(F)(F)C(F)(F)C(F)(F)C(F)(F)F` [Perfluoropentanoic_acid]: the POD vs vehicle is > 100 µM.

In the case of `O=C(O)C(F)(F)C(F)(F)F` [Perfluoropropanoic_acid], the POD vs vehicle is > 100 µM.

Take `O=C(O)C(F)(F)C(F)(F)C(F)(F)C(F)(F)C(F)(F)C(F)(F)C(F)(F)C(F)(F)C(F)(F)C(F)(F)F` [Perfluoroundecanoic_acid]: the POD vs vehicle is > 100 µM.

`O=S(=O)([O-])C(F)(F)C(F)(F)C(F)(F)C(F)(F)F.[K+]` [Potassium_perfluorobutanesulfonate]: the POD vs vehicle was > 100 µM.

For a further assay, the system named is 1309 (donor line of iPSC-derived cardiomyocytes). The description is as above. The note with it: exposure time: 90 min. The protocol:
as §1
`O=C(O)C(F)(F)C(F)(F)C(F)(F)F` [Perfluorobutanoic_acid]: the POD vs vehicle is > 100 µM.

For the compound `O=C(O)C(F)(F)C(F)(F)C(F)(F)C(F)(F)C(F)(F)C(F)(F)C(F)(F)C(F)(F)C(F)(F)F` [Perfluorodecanoic_acid], the POD vs vehicle was > 100 µM.

`O=C(O)C(F)(F)C(F)(F)C(F)(F)C(F)(F)C(F)(F)C(F)(F)F` [Perfluoroheptanoic_acid]: the POD vs vehicle is > 100 µM.

For the compound `NS(=O)(=O)C(F)(F)C(F)(F)C(F)(F)C(F)(F)C(F)(F)C(F)(F)F` [Perfluorohexanesulfonamide], the POD vs vehicle is > 100 µM.

`O=S(=O)(O)C(F)(F)C(F)(F)C(F)(F)C(F)(F)C(F)(F)C(F)(F)F` [Perfluorohexanesulfonic_acid]: the POD vs vehicle is > 100 µM.

For `O=C(O)C(F)(F)C(F)(F)C(F)(F)C(F)(F)C(F)(F)F` [Perfluorohexanoic_acid], the POD vs vehicle is > 100 µM.

`O=C(O)C(F)(F)C(F)(F)C(F)(F)C(F)(F)C(F)(F)C(F)(F)C(F)(F)C(F)(F)F` [Perfluorononanoic_acid]: the POD vs vehicle is > 100 µM.

For `NC(=O)C(F)(F)C(F)(F)C(F)(F)C(F)(F)C(F)(F)C(F)(F)C(F)(F)F` [Perfluorooctanamide], the POD vs vehicle is > 100 µM.

Turning to `N=C(N)C(F)(F)C(F)(F)C(F)(F)C(F)(F)C(F)(F)C(F)(F)C(F)(F)F` [Perfluorooctanamidine], the POD vs vehicle is > 100 µM.

Turning to `O=S(=O)(O)C(F)(F)C(F)(F)C(F)(F)C(F)(F)C(F)(F)C(F)(F)C(F)(F)C(F)(F)F` [Perfluorooctanesulfonic_acid], the POD vs vehicle is > 100 µM.

Take `O=C(O)C(F)(F)C(F)(F)C(F)(F)C(F)(F)C(F)(F)C(F)(F)C(F)(F)F` [Perfluorooctanoic_acid]: the POD vs vehicle was > 100 µM.

For `O=C(O)C(F)(F)C(F)(F)C(F)(F)C(F)(F)F` [Perfluoropentanoic_acid], the POD vs vehicle was > 100 µM.

For `O=C(O)C(F)(F)C(F)(F)F` [Perfluoropropanoic_acid], the POD vs vehicle was > 100 µM.

For the compound `O=C(O)C(F)(F)C(F)(F)C(F)(F)C(F)(F)C(F)(F)C(F)(F)C(F)(F)C(F)(F)C(F)(F)C(F)(F)F` [Perfluoroundecanoic_acid], the POD vs vehicle is > 100 µM.

With `O=S(=O)([O-])C(F)(F)C(F)(F)C(F)(F)C(F)(F)F.[K+]` [Potassium_perfluorobutanesulfonate], the POD vs vehicle is > 100 µM.

Another assay has as its system 1565 (donor line of iPSC-derived cardiomyocytes). The description is as above. The note with it: exposure time: 90 min. The protocol: as §1
Take `O=C(O)C(F)(F)C(F)(F)C(F)(F)F` [Perfluorobutanoic_acid]: the POD vs vehicle is > 100 µM.

For `O=C(O)C(F)(F)C(F)(F)C(F)(F)C(F)(F)C(F)(F)C(F)(F)C(F)(F)C(F)(F)C(F)(F)F` [Perfluorodecanoic_acid], the POD vs vehicle is > 100 µM.

As for `O=C(O)C(F)(F)C(F)(F)C(F)(F)C(F)(F)C(F)(F)C(F)(F)F` [Perfluoroheptanoic_acid], the POD vs vehicle is > 100 µM.

In the case of `NS(=O)(=O)C(F)(F)C(F)(F)C(F)(F)C(F)(F)C(F)(F)C(F)(F)F` [Perfluorohexanesulfonamide], the POD vs vehicle was > 100 µM.

As to `O=S(=O)(O)C(F)(F)C(F)(F)C(F)(F)C(F)(F)C(F)(F)C(F)(F)F` [Perfluorohexanesulfonic_acid], the POD vs vehicle was > 100 µM.

Consider `O=C(O)C(F)(F)C(F)(F)C(F)(F)C(F)(F)C(F)(F)F` [Perfluorohexanoic_acid], for which the POD vs vehicle is > 100 µM.

As to `O=C(O)C(F)(F)C(F)(F)C(F)(F)C(F)(F)C(F)(F)C(F)(F)C(F)(F)C(F)(F)F` [Perfluorononanoic_acid], the POD vs vehicle was > 100 µM.

On to `NC(=O)C(F)(F)C(F)(F)C(F)(F)C(F)(F)C(F)(F)C(F)(F)C(F)(F)F` [Perfluorooctanamide], for which the POD vs vehicle is > 100 µM.

Turning to `N=C(N)C(F)(F)C(F)(F)C(F)(F)C(F)(F)C(F)(F)C(F)(F)C(F)(F)F` [Perfluorooctanamidine], the POD vs vehicle is > 100 µM.

As for `O=S(=O)(O)C(F)(F)C(F)(F)C(F)(F)C(F)(F)C(F)(F)C(F)(F)C(F)(F)C(F)(F)F` [Perfluorooctanesulfonic_acid], the POD vs vehicle was > 100 µM.

Take `O=C(O)C(F)(F)C(F)(F)C(F)(F)C(F)(F)C(F)(F)C(F)(F)C(F)(F)F` [Perfluorooctanoic_acid]: the POD vs vehicle is > 100 µM.

On to `O=C(O)C(F)(F)C(F)(F)C(F)(F)C(F)(F)F` [Perfluoropentanoic_acid], for which the POD vs vehicle is > 100 µM.

For the compound `O=C(O)C(F)(F)C(F)(F)F` [Perfluoropropanoic_acid], the POD vs vehicle was > 100 µM.

Regarding `O=C(O)C(F)(F)C(F)(F)C(F)(F)C(F)(F)C(F)(F)C(F)(F)C(F)(F)C(F)(F)C(F)(F)C(F)(F)F` [Perfluoroundecanoic_acid], the POD vs vehicle is > 100 µM.

On to `O=S(=O)([O-])C(F)(F)C(F)(F)C(F)(F)C(F)(F)F.[K+]` [Potassium_perfluorobutanesulfonate], for which the POD vs vehicle is > 100 µM.
